# Results reported in ChEMBL document CHEMBL4622870, “Design, synthesis and evaluation of hydrazine and acyl hydrazone derivatives of 5-pyrrolidin-2-one as antifungal agents” (Bioorg Med Chem Lett, 2020).
# What was measured:
# Candida tropicalis = assay: Antifungal activity against Candida tropicalis assessed as fungal growth inhibition at 100 ug/ml by micro-dilution method relative to control; type: functional; settings: read-out: GI
# Kluyveromyces marxianus = assay: Antifungal activity against Candida pseudotropicalis assessed as fungal growth inhibition at 100 ug/ml by micro-dilution method relative to control; type: functional; settings: read-out: GI
# Geotrichum candidum [1] = assay: Antifungal activity against Geotrichum candidum assessed as fungal growth inhibition at 100 ug/ml by micro-dilution method relative to control; type: functional; settings: read-out: GI
# Penicillium ochrochloron = assay: Antifungal activity against Penicillium ochrochloron assessed as fungal growth inhibition at 100 ug/ml by micro-dilution method relative to control; type: functional; settings: read-out: GI
# Aspergillus oryzae = assay: Antifungal activity against Aspergillus oryzae assessed as fungal growth inhibition at 100 ug/ml by micro-dilution method relative to control; type: functional; settings: read-out: GI
# Botrytis cinerea = assay: Antifungal activity against Botrytis cinerea assessed as fungal growth inhibition at 100 ug/ml by micro-dilution method relative to control; type: functional; settings: read-out: GI
# Fusarium solani = assay: Antifungal activity against Fusarium solani assessed as fungal growth inhibition at 100 ug/ml by micro-dilution method relative to control; type: functional; settings: read-out: GI
# Pichia kudriavzevii = assay: Antifungal activity against Candida krusei assessed as fungal growth inhibition at 100 ug/ml by micro-dilution method relative to control; type: functional; settings: read-out: GI
# HEK293 = assay: Cytotoxicity against human HEK293 cells assessed as effect on cell viability measured after 72 hrs by MTS assay; type: cell-based; settings: hek293, 72 h
# Alternaria alternata = assay: Antifungal activity against Alternaria alternata assessed as fungal growth inhibition at 100 ug/ml by micro-dilution method relative to control; type: functional; settings: read-out: GI
# Sclerotinia sclerotiorum = assay: Antifungal activity against Sclerotinia sclerotiorum assessed as fungal growth inhibition at 100 ug/ml by micro-dilution method relative to control; type: functional; settings: read-out: GI
# [2] = test system: Cladosporium cladosporioides; assay: Antifungal activity against Cladosporium cladosporioides assessed as fungal growth inhibition at 100 ug/ml by micro-dilution method relative to control; type: functional; settings: read-out: GI
# Paecilomyces variotii = assay: Antifungal activity against Paecilomyces variotii assessed as fungal growth inhibition at 100 ug/ml by micro-dilution method relative to control; type: functional; settings: read-out: GI
# Geotrichum candidum [3] = assay: Antifungal activity against Geotrichum candidum assessed as fungal growth inhibition by micro-dilution method; type: functional
Compound,inhibition of growth at 100 µg/mL (Candida tropicalis) [%],inhibition of growth at 100 µg/mL (Kluyveromyces marxianus) [%],inhibition of growth at 100 µg/mL (Geotrichum candidum [1]) [%],inhibition of growth at 100 µg/mL (Penicillium ochrochloron) [%],inhibition of growth at 100 µg/mL (Aspergillus oryzae) [%],inhibition of growth at 100 µg/mL (Botrytis cinerea) [%],inhibition of growth at 100 µg/mL (Fusarium solani) [%],inhibition of growth at 100 µg/mL (Pichia kudriavzevii) [%],Activity (HEK293),inhibition of growth at 100 µg/mL (Alternaria alternata) [%],inhibition of growth at 100 µg/mL (Sclerotinia sclerotiorum) [%],inhibition of growth at 100 µg/mL [2] [%],inhibition of growth at 100 µg/mL (Paecilomyces variotii) [%],MIC50 (Geotrichum candidum [3]) [µg/mL]
CC(C)=CCC/C(C)=C/C=N/NC(=O)[C@@H]1CCC(=O)N1,38,8,5,0,17,27,43,0,Non-Toxic,0,15,27,0,–
O=C1CC[C@@H](C(=O)N/N=C/c2c(F)c(F)c(F)c(F)c2F)N1,0,0,36,21,4,17,40,0,Non-Toxic,0,5,11,0,–
O=C1CC[C@@H](C(=O)N/N=C/C2CCCCC2)N1,0,30,62,23,8,8,0,0,Non-Toxic,8,0,1,36,–
O=C1CC[C@@H](C(=O)N/N=C/c2ccc(C(F)(F)F)cc2)N1,17,21,85,44,0,0,55,21,Non-Toxic,21,0,11,44,63.7
COc1cc(/C=N/NC(=O)[C@@H]2CCC(=O)N2)cc(OC)c1OC,0,18,0,32,0,0,0,50,Non-Toxic,29,0,0,26,–
N#Cc1ccc(/C=N/NC(=O)[C@@H]2CCC(=O)N2)cc1,0,0,0,20,0,0,0,10,Non-Toxic,42,0,0,33,–
O=C1CC[C@@H](C(=O)N/N=C/c2cccc(C(F)(F)F)c2Cl)N1,0,18,62,44,4,0,0,47,Non-Toxic,12,0,36,19,–
COc1cc(/C=N/NC(=O)[C@@H]2CCC(=O)N2)ccc1O,0,0,0,0,0,0,0,37,Non-Toxic,20,0,0,22,–
C=C(C)C1CC=C(/C=N/NC(=O)[C@@H]2CCC(=O)N2)CC1 (some centres not stated),0,0,39,45,0,13,0,18,Non-Toxic,0,0,56,31,–
O=C1CC[C@@H](C(=O)N/N=C/CCc2ccccc2)N1,17,12,68,29,0,6,0,0,Non-Toxic,0,0,53,39,–
O=C1CC[C@@H](C(=O)N/N=C/c2c(Cl)cccc2Cl)N1,16,32,73,22,12,0,60,0,Non-Toxic,0,58,12,13,1.8
COc1ccc(/C=N/NC(=O)[C@@H]2CCC(=O)N2)cc1,49,40,25,23,24,0,0,40,Non-Toxic,3,38,35,36,–
O=C1CC[C@@H](C(=O)N/N=C/c2ccccc2O)N1,7,18,70,30,7,0,40,38,Non-Toxic,38,21,0,14,62
O=C1CC[C@@H](C(=O)N/N=C/c2cc(F)ccc2F)N1,0,18,62,26,13,6,58,47,Non-Toxic,0,0,34,37,–
CC1(C)C2CC=C(/C=N/NC(=O)[C@@H]3CCC(=O)N3)C1C2 (some centres not stated),0,18,0,0,4,0,0,0,Non-Toxic,0,0,0,39,–
O=C1CCC(NNc2ccccn2)N1 (racemic),8,0,32,21,23,0,64,0,Non-Toxic,0,0,0,11,–
OC(Cn1cncn1)(Cn1cncn1)c1ccc(F)cc1F [FLUCONAZOLE],–,–,–,–,–,–,–,–,–,–,–,–,–,1.6
